We go through 54 molecules from article PMC4788259 (PLoS Neglected Tropical Diseases, 2016).

This assay deals with E. multilocularis metacestodes. As to the kind of experiment: PGI assay: phosphoglucose isomerase release from damaged metacestodes. The note with it: 10 μM, 5 days, single wells, relative to DB1127 (10 μM). It is filed as cell-based, Echinococcus multilocularis. In outline:
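E. multilocularis metacestode vesicles (strain H95, grown in BALB/c mice, 2–4 mm diameter) were exposed in vitro to compounds for 5 days. Damage was read as phosphoglucose isomerase released into the medium. Initial screening used 10 μM in single wells, with 0.1% DMSO as negative control. EC50 values were derived from this read-out.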
Regarding `CC1=C(CC(=O)c2cccc([N+](=O)[O-])c2)C(=O)c2ccccc2C1=O` [MMV666125], the “PGI (% of DB1127 at 10 uM)” value is listed as -2.81%.
As for `CCCN(CCC)CC(O)COc1ccccc1C(=O)Nc1ccccc1` (stereo not drawn) [MMV006455], the “PGI (% of DB1127 at 10 uM)” value is listed as -26.39%.
Next, `COc1ccc(C(=O)Nc2ccc(Cl)cc2C(=O)Nc2ccncc2)cc1` [MMV665799]: 5.52%.
Next, `CCCCc1c(C)nc2c(OC)cccc2c1O` [MMV006820]: 1.39%; `O=C(O)C(=O)O.Oc1ccc(Br)cc1CN1CCN(Cc2cccc(F)c2)CC1` [MMV000356]: -18.68%; `CN1CCN(c2ncnc3c2[nH]c2ccc(Cl)cc23)CC1` [MMV396704]: -24.85%.
Next, `CC(C)(C)C(=O)Nc1ccc(C(=O)Nc2cccc(-c3nc4ccccc4[nH]3)c2)cc1` [MMV665879]: 17.15%.
With `CCOc1ccc(-n2cc(-c3ccccc3)c3c(SCc4cc(C)ccc4C)ncnc32)cc1` [MMV085471], the “PGI (% of DB1127 at 10 uM)” value is -19.26%.
With `Cc1cc(C)c2nc(N3CCC(C(=O)NCCCN4CCC(N5CCCCC5)CC4)CC3)sc2c1` [MMV019780] the figure was 36.03%.
Next, `O=C(Nc1nc(-c2ccccn2)cs1)c1ccccc1Br` [MMV665909]: -125.86%; `CN1CCN(c2nc(Nc3ccc(O)cc3)nc3ccccc23)CC1.Cl` [MMV000986]: -4.90%; `CC(C)(C)c1ccc(O)c(CNC2CCCCC2)c1` [MMV665785]: 1.27%.
Next, `CC(C)CCNCC(O)Cn1c2ccccc2c2ccccc21.Cl` (stereo not drawn) [MMV006787]: 62.04%; `CCn1c(SCC(=O)Nc2cc(C(F)(F)F)ccc2Cl)nc2ccccc2c1=O` [MMV666103]: -111.41%.
With `CCOc1cc2c(cc1OCC)C(c1cc(OC)c(O)cc1Cl)NCC2` (stereo not drawn) [MMV008956], the “PGI (% of DB1127 at 10 uM)” value is -28.84%.
With `CC(C)(C)CC(C)(C)NCC(O)COc1ccc(Cl)cc1Cl` (stereo not drawn) [MMV396794] the figure was 97.35%; with `COc1ccc(C2NCCc3c2[nH]c2ccccc32)cc1CN1CCN(c2ccc(F)cc2)CC1.Cl` (stereo not drawn) [MMV019690], 51.28%; with `Cc1cc(NC(=O)c2cccc(C(F)(F)F)c2)n(-c2nc(-c3ccc4c(c3)OCO4)cs2)n1` [MMV396681], -33.55%.
Next, `Cc1ccc(-c2cc(C(=O)Nc3ccc(S(=O)(=O)N4CCCCC4)cc3)[nH]n2)c(O)c1` [MMV665906]: -8.23%; `O=C(CCl)NCCOc1ccc(Cl)cc1Cl` [MMV665927]: 24.95%; `Oc1ccc(C(=C(Cl)Cl)c2ccc(O)cc2)cc1` [MMV665949]: 8.99%.
With `O=C(NCC1Cc2cccc(-c3ccncc3)c2O1)c1csc2c1CCCC2` (stereo not drawn) [MMV665954] the figure was -10.62%.
For `CC1CC2=C(CC1CNCCCN(C)C)C(C)(C)CCC2` (stereo not drawn) [MMV665830], the “PGI (% of DB1127 at 10 uM)” value was -3.36%.
As to `OC(CNC1CCCCC1)Cn1c2ccccc2c2ccccc21` (stereo not drawn) [MMV009063], the “PGI (% of DB1127 at 10 uM)” value is listed as 29.02%.
For the molecule `FC(F)(F)c1ccc(Nc2nnnc3ccccc23)cc1` [MMV665935], the “PGI (% of DB1127 at 10 uM)” value was -27.43%.
As to `COc1ccc2sc(N(Cc3cccnc3)C(=O)c3ccc(C#N)cc3)nc2c1` [MMV001239], the “PGI (% of DB1127 at 10 uM)” value was -2.38%.
Next, `Cc1cc(C=C2SC(=Nc3ccccc3)N(C3CCCC3)C2=O)c(C)n1-c1ccc(Cl)cc1` [MMV666688]: -35.93%; `COc1ccc(CN2CCCC(C(=O)c3ccc(C(F)(F)F)cc3)C2)c(O)c1` (stereo not drawn) [MMV666060]: -1.92%.
Next, `c1ccc2c(NCCc3c[nH]c4ccccc34)c3ccccc3nc2c1` [MMV006513]: 41.08%; `O=C(Nc1cccc(-c2nc3ccccc3[nH]2)c1)c1cccc(NC(=O)c2ccco2)c1` [MMV665883]: 21.02%.
Consider `Oc1ccc2ccccc2c1CNc1nc2ccccc2[nH]1` [MMV011832], for which the “PGI (% of DB1127 at 10 uM)” value came out at 34.82%.
Next, `COc1ccc(N2CCN(C(CNC(=O)CC(C)(C)C)c3ccc4c(c3)OCO4)CC2)cc1` (stereo not drawn) [MMV665908]: -6.01%; `O=C(Nc1ccsc1C(=O)NC1CCCCC1)c1ccc(F)cc1` [MMV665939]: -15.17%; `Cc1ccc(CSCc2ccc(C(=O)NC3CC3)o2)cc1` [MMV007571]: -9.42%.
With `CCOc1cc(CNC(C)C(O)c2ccccc2)cc(Cl)c1OCC` (stereo not drawn) [MMV396633] the figure was 30.39%; with `COc1ccc(C2N(C)c3ccccc3N2C)cc1` [MMV666075], 0.50%; with `CN1c2ccccc2N(C)C1c1ccc2c(c1)OCO2` [MMV666009], -36.57%.
Next, `Br.CCn1c2c(c(=N)c3c1CCC3)CCCC2` [MMV000340]: 2.86%.
Consider `Cc1cc(=O)oc2c1ccc1oc(C(=O)c3ccccc3)c(C)c12` [MMV006753], for which the “PGI (% of DB1127 at 10 uM)” value is -7.57%.
Next, `O=C(NNc1cc(N2CCCC2)nc(N2CCCC2)n1)c1ccccc1` [MMV396770]: -1.95%.
In the case of `COc1ccc(C(=O)NC(c2ccc(Cl)cc2Cl)c2cc(Cl)c3cccnc3c2O)cc1` (stereo not drawn) [MMV666054], the “PGI (% of DB1127 at 10 uM)” value was 1.08%.
Next, `O=C(CCc1ccco1)NC1CCN(CC2(c3ccc(Cl)cc3)CCC2)CC1` [MMV666108]: -18.89%; `CCCCc1ccc(NS(=O)(=O)c2cc3c4c(c2)CCN4C(=O)CC3)cc1` [MMV001255]: -110.46%.
On to `COc1ccc(-c2cc(=O)oc3c4c(ccc23)OCN(Cc2ccc(F)cc2)C4)cc1` [MMV000604], for which the “PGI (% of DB1127 at 10 uM)” value worked out at 3.81%.
Next, `COc1cc2c(cc1OC)C1=NNC(=O)C1=NC(C)(C)C2` [MMV084940]: -19.88%; `COCCN(C(=O)Cc1cccs1)C(C(=O)NCc1ccc(OC)cc1)c1ccc(C(C)C)cc1` (stereo not drawn) [MMV666105]: -124.48%.
Next, `CCOc1c(Cl)cc(CNCC(O)c2ccccc2)cc1OC` (stereo not drawn) [MMV396632]: 5.30%; `Cc1cc(C)cc(Nc2cc(C)nc3nc(C(F)(F)F)nn23)c1` [MMV011259]: -21.18%; `CCOc1ccc(/C=C/c2nc(=O)c3ccccc3o2)cc1` [MMV665940]: -92.49%.
For `CC(=O)NCCc1nc2ccccc2n1Cc1ccc(C(C)C)cc1` [MMV007617], the “PGI (% of DB1127 at 10 uM)” value was -2.63%.
With `O=C(NC1CCCC1)c1ccc(N2CCC(NCc3cccc(C(F)(F)F)c3)CC2)cc1` [MMV666070] the figure was -8.11%.
For the molecule `CCC1(C)CC(CCNCc2ccccc2O)(c2ccc(C)cc2)CCO1` (stereo not drawn) [MMV019406], the “PGI (% of DB1127 at 10 uM)” value is recorded as -21.13%.
As to `COc1cccc(C(=O)NC(c2ccc(C)cc2)c2cc(Cl)c3cccnc3c2O)c1` (stereo not drawn) [MMV665969], the “PGI (% of DB1127 at 10 uM)” value is reported as -25.94%.
With `COc1cccc(-c2nn(C)c3sc(C(=O)NCCN4CCN(c5ccccc5F)CC4)cc23)c1` [MMV019064] the figure was -17.87%.
